The text below walks through data of US20020044943A1, “MUC-1 as an immunosuppressive therapeutic agent for the treatment of inflammatory and autoimmune conditions” (priority 1997, published 2002).

One assay has as its system human T-cell cultures. As to the kind of experiment: Mixed lymphocyte reaction (allo-antigenic T-cell proliferation). The assay is classed as cell-based. The following applies: B27.29 affinity purified MUC-1 mucin, various doses, in vitro. As for the experimental part: The mixed lymphocyte reaction is conducted by mixing the lymphocytes of HLA disparate individuals in in vitro tissue cultures. The “responder population” in this experiment is purified T-cells from one population, while the “stimulator” population in this experiment is the adherent antigen presenting cells obtained from an HLA mismatched individual donor. The two cell populations were mixed and cultured either in the presence or absence of various doses of B27.29 affinity purified MUC-1 mucin that was purified from a pleural effusion fluid.

Assay [1] concerns the target T1, recombinant human ICAM-1-Ig fusion protein (Homo sapiens, UniProt P05362).
T1 construct: coated with 50 uL of a solution with 20 ug/mL recombinant soluble ICAM-1 in PBS; Ig (immunoglobulin) fusion partner
Nature of the assay: Tumor cell-immobilized ICAM-1 adhesion assay. The assay is classed as cell-based. To be noted: antibodies 10 or 20 ug/mL, soluble MUC-1 10 ug/mL. On the procedure:
96 well tissue culture plates were coated with 50 uL of a solution with 20 ug/mL recombinant soluble ICAM-1 in PBS for 1 hr at room temperature. Wells were then blocked with 1% BSA for 2 hr at 37 C. and washed four times with PBS. Antibodies (10 ug/mL) (anti-ICAM-1 164B, 18E3D, 84H10, anti-E selectin 1.2B6) and soluble MUC-1 (10 ug/mL) were added to the wells for 90 min. at room temperature. Wells were then washed again before addition of cells. BCECF labeled tumor cells were pretreated +/− 20 ug/mL of anti-MUC-1 (B27.29, or DF3P) and were then added to the appropriate wells for 40 min. at 37 C. Wells were then washed and percent adhesion was then determined as described in the tumor cell—endothelial cell adhesion assay.
To exclude the possibility that adhesion was being mediated by endothelial molecules other than ICAM-1, the adhesion of the MUC-1 transfectants was studied using immobilized recombinant human ICAM-1-Ig fusion protein. Adhesion was compared to Bovine Serum Albumin and Collagen type I as controls.

The test system of another assay is Purified T cells. As to the kind of experiment: T cell proliferation assay (allo MLR, 3H-thymidine incorporation). The assay is classed as cell-based, human. To be noted: 10 ug/ml, allo PBL stimulated T cells. (Incorporation of labelled thymidine or its analogues reports DNA synthesis.)
The test system of another assay is GZ-Hi tumor cells. Nature of the assay: Tumor take after i.v. MUC-1 mucin and subcutaneous tumor challenge. The assay is classed as in vivo. The following applies: CB6 mice, MUC-1 mucin 20 micrograms i.v. on days -2, +2, +6; 1x10^6 GZ-Hi cells s.c.; observed 8 weeks. As for the experimental part:
The procedures employed in this example are similar to those described in Fung, et al. Cancer Research 51:1170-1176 (1991), which is hereby incorporated by reference. However, in the present example, the human MUC-1 system was used instead of the epiglycanin system.
CB6 mice were injected intravenously with MAb B27.29 affinity purified MUC-1 mucin (20 micrograms each treatment or approximately 400 units) prior to (day-2) and after (days +2 and +6) an attempted tumor challenge. Affinity purified mucin had been prepared by affinity adsorption on a B 27.29 CnBr-Sepharose matrix from a pleural effusion fluid obtained from a patient with adenocarcinoma of the ovaries. MUC-1 mucin treated and control mice were challenged with 1×10^6 GZ-Hi tumor cells injected into the subcutaneous space along the flank. Mice were observed by palpation and visual inspection at the injection site for the occurrence of tumors over a period of 8 weeks.

T1 sequence (P05362 28-480 limits assumed): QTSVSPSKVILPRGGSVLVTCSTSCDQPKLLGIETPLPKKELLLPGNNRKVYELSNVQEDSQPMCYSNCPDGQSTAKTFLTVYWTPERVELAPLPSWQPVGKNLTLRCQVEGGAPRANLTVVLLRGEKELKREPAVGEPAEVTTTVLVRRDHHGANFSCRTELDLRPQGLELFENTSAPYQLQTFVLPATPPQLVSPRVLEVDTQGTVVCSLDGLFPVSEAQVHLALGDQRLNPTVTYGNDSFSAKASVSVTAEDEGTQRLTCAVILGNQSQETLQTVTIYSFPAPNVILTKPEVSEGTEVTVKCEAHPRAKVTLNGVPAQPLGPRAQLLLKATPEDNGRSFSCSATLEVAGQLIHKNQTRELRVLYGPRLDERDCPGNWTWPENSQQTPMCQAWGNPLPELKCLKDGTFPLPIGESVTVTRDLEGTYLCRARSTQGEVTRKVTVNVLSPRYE
Protocol for Purified T cells: Enriched T cell populations were purified from buffy coats obtained from normal red cross donors using nylon wool columns by previously reported procedures. […] For the allo MLR, mitomycin C treated allogeneic PBLs were cocultured with purified T cells in the presence or absence of affinity purified MUC-1 mucin or control OSM. In most of the experiments, the T cells were cultured 6-7 days in AIM V medium in the absence or presence of MUC-1, MUC-1 derivative or OSM at the indicated concentration. After this time, the T cells were harvested, washed and cultured as indicated.
Purified T cells (10^6/ml) were cultured in AIM V medium with allo PBLs in the absence or presence of MUC-1, MUC-1 derivative or OSM 10 ug/ml for 6-7 days. T cells were harvested and plated in 96 well flat bottom plates at 10^5/well with allo PBLs (10^5/well), in the presence or absence of affinity purified MUC-1, MUC-1 derivative or OSM. Control cultures were treated with either 50 U/ml IL-2 or 1 ug/ml anti-CD28 Mab. After 4 days of culture, ^3H-thymidine (1 uCi/well) was added. The cells were harvested on the fifth day and ^3H-thymidine incorporation was measured by liquid scintillation.
Synthetic peptides, as described in Example 8, corresponding to 3, 4, 5 or 6 MUC-1 repeats, were added at 10 ug/ml to allo cultures and T cell proliferation was measured at 14 days from the start of culture. […]

Take “MUC-1: MAb B27.29 affinity purified human MUC-1 mucin from pleural effusion or ascites fluid of cancer patients”: the “inhibition of T-cell proliferation against a strong allo-antigenic stimulus” value with human T-cell cultures is listed as “strongly inhibits”. Moreover, the “inhibition of GZHi adhesion to immobilized ICAM-1” value in assay [1] is listed as “equally effective at blocking adhesion”. Further, the “reduction of T cell proliferation relative to control” value in the assay with Purified T cells is on record as “inhibition of T cell proliferation”. In addition, in the assay with GZ-Hi tumor cells, the “% Tumor Take” value is recorded as 100%.
